Drawing on US20240016941A1, “COMBINATION THERAPY” (priority 2020, published 2024), this text covers inhibition and Ki for 11 compounds.

Structures are written as SMILES.

A word on the Ki: it is the equilibrium dissociation constant of an inhibitor or competing ligand from its target. Lower therefore signals tighter binding.

Assay [1] addresses T1, LasB elastase activity of dialysed supernatant from P. aeruginosa PAO1 (Pseudomonas aeruginosa, UniProt P14756).
T1 construct: Culture supernatants are recovered by centrifugation and filtrated through a 0.22 μM filter; endogenous in cells; host or cells: P. aeruginosa strain PAO1, culture supernatant, filtered and dialysed
Nature of the assay: Elastin Congo-Red assay to determine % inhibition (dialysed PAO1 supernatant). The class given is biochemical. To be noted: read-out: Elastin hydrolysis % inhibition @ 25 μM inhibitor concentration. Here is the method: (§1) Experiments were therefore conducted (1) to measure the potency of inhibition of compounds of the invention against purified Pseudomonas aeruginosa LasB enzyme and also experiments were conducted (2) to measure the ability of compounds of the invention to inhibit LasB-catalysed elastin degradation. The first assay uses a commercial fluorescent synthetic peptide and purified LasB enzyme. The LasB hydrolysis kinetics are measured allowing the determination of the IC50 and Ki of the inhibitors; the second is a more physiological assay using dialysed Pseudomonas aeruginosa supernatant as source of enzyme, plus its natural substrate Elastin. It is an “end point assay” that determines the percentage of LasB inhibition by each compound for one particular time point and inhibitor concentration. Technical details are described below:
The Elastin assay uses as source of enzyme dialysed supernatant from P. aeruginosa PAO1 and the Elastin Congo-Red as substrate. The natural LasB substrate, elastin, is complexed with the congo-red dye (Elastin Congo-Red, ECR). The elastolysis activity from the culture supernatant will degrade elastin and release the congo-red dye into the supernatant. This red dye release can be measured with a spectrophotometer.
Method: To determine LasB elastase activity and assess compound inhibition, an overnight culture of P. aeruginosa strain PAO1 is diluted in LB medium. After reaching an OD600nm of 0.6, this culture is diluted and incubated for additional 18-24 hours in a shaking incubator. Culture supernatants are recovered by centrifugation and filtrated through a […] filter. These supernatants are dialysed (filtration molecules <20 kDa) into a 50 mM Tris-HCl pH 7.4, 2.5 mM CaCl2 solution at 4° C. under agitation for 24 hours. Supernatant dialysed is then mixed volume/volume with the ECR suspension (20 mg/mL of ECR in 100 mM Tris-HCl pH 7.4 buffer supplemented with 1 mM CaCl2)) supplemented with Triton X100 (final concentration of 0.01%) in presence of DMSO (positive control) and/or different concentrations of compound (routinely 50 to 1.56 μM). As a negative control, the dialysed supernatant is replaced by Tris-HCl solution (50 mM Tris-HCl pH 7.4, 2.5 mM CaCl2). The mixed reaction is then incubated overnight in a 37° C. shaking incubator. The reaction supernatant is recovered by centrifugation and the release of congo-red is measured by its absorbance at 495 nm (OD495nm).
Percentage inhibition is determined using the following equation:
((OD495 nm value of positive control−OD495nm value of negative control)−(OD495nm value of treated supernatant−OD495nm value of negative control))/(OD495nm value of positive control−OD495nm value of negative control)×100.

Assay [2] deals with T2, purified LasB protein from P. aeruginosa (Pseudomonas aeruginosa, UniProt P14756).
T2 construct: purchased Merck or Charles River Laboratories
T2 sequence (P14756 198-498): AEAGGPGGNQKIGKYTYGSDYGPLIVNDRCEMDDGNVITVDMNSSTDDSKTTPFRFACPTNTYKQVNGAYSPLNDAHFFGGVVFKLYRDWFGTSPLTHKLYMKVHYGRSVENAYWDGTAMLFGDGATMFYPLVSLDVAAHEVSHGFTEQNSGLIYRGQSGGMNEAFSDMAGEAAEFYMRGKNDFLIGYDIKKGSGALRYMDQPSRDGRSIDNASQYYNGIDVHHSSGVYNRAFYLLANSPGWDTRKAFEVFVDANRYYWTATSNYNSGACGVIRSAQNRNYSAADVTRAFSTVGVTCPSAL
Kind of assay: Fluorometric assay to determine Ki (purified LasB, Abz-Ala-Gly-Leu-Ala-p-Nitro-Benzyl-Amide substrate). The class given is biochemical. How it is done: as §1
This assay uses commercially available substrate (Abz-Ala-Gly-Leu-Ala-p-Nitro-Benzyl-Amide (Ex: 340 nm, Em: 415 nm) from Peptide International) and purified LasB protein from P. aeruginosa (provided by Merck or Charles River Laboratories). It is performed to determine LasB elastase activity and assess compound inhibition in 96-well plate format. All compounds of Formula (I) were assessed using the method described below.
Method: 10 to 140 ng/ml purified LasB is incubated with 250 μM Abz-Ala-Gly-Leu-Ala-p-Nitro-Benzyl-Amide in 50 mM Tris-HCl pH 7.4, 2.5 mM CaCl2), 0.01% of Triton X100 at 37° C. LasB activity (corresponding to fluorescence emission induced by substrate hydrolysis) is measured over 30 min at 37° C. with a fluorescence plate reader such as the Perkin Elmer Envision or similar. Different range of inhibitor concentrations are routinely assessed depending of inhibitor potency from 0.0016 to 200 μM (2-fold dilutions series) in order to determine IC50.
The equation used to calculate the Ki from IC50 is: Ki=IC50/(1+([S]/Km)) where [S]=250 μM and Km=214 μM.

T1 sequence (P14756 198-498): as above

For `CN1CCN(C(=O)c2ccc3sc(CNC(=O)C4(CC(=O)O)Cc5ccccc5C4)nc3c2)CC1` [Example 27, 2-[2-[[5-(4-methylpiperazine-1-carbonyl)-1,3-benzothiazol-2-yl]methylcarbamoyl]indan-2-yl]acetic acid], in assay [1], the inhibition at 25 µM was in the range of 60 to 80%. The compound also came in with a Ki in assay [2] of 0.05 to 0.2 µM.

For `COc1cc2sc(CNC(=O)C3(CC(=O)[O-])Cc4cc(F)c(F)cc4C3)nc2cc1OCC[N+]1(C)CCOCC1` [Example 13, 2-[5,6-difluoro-2-[[6-methoxy-5-[2-(4-methylmorpholin-4-ium-4-yl)ethoxy]-1,3-benzothiazol-2-yl]methylcarbamoyl]indan-2-yl]acetate], the inhibition at 25 µM in assay [1] was in the range of 60 to 80%. The inhibitory constant (Ki) in assay [2] was 0.05 to 0.2 µM.

For the compound `N#Cc1ccc2nc(CNC(=O)C3(CC(=O)O)Cc4ccccc4C3)sc2c1` [Example 48, 2-[2-[(6-cyano-1,3-benzothiazol-2-yl)methylcarbamoyl]indan-2-yl]acetic acid], the inhibition at 25 µM in assay [1] lay in the range of 60 to 80%. In assay [2], this compound returned an inhibition constant Ki of 0.05 to 0.2 µM.

For `COc1cc2sc(CNC(=O)C3(CC(=O)[O-])Cc4ccccc4C3)nc2cc1OCCC[N+]1(C)CCOCC1` [Example 16, 2-[2-[[6-methoxy-5-[3-(4-methylmorpholin-4-ium-4-yl)propoxy]-1,3-benzothiazol-2-yl]methylcarbamoyl]indan-2-yl]acetate], the inhibition at 25 µM in assay [1] lay in the range of 60 to 80%. The same compound registered an inhibition constant Ki in assay [2] of less than 0.05 µM.

For the compound `COc1cc2sc(CNC(=O)C3(CC(=O)[O-])Cc4cc(F)c(F)cc4C3)nc2cc1C(=O)N1CC[N+](C)(C)CC1` [Example 35, 2-[2-[[5-(4,4-dimethylpiperazin-4-ium-1-carbonyl)-6-methoxy-1,3-benzothiazol-2-yl]methylcarbamoyl]-5,6-difluoro-indan-2-yl]acetate], the inhibition at 25 µM in assay [1] was 60 to 80%. In assay [2], the Ki lay within 0.05 to 0.2 µM.

Regarding `COc1cc2sc(CNC(=O)C3(CC(=O)O)Cc4ccccc4C3)nc2cc1S(=O)(=O)N1CCC(N(C)C)CC1` [Example 46, 2-[2-[[5-[[4-(dimethylamino)-1-piperidyl]sulfonyl]-6-methoxy-1,3-benzothiazol-2-yl]methylcarbamoyl]indan-2-yl]acetic acid], the inhibition at 25 µM in assay [1] lay within 60 to 80%. This compound also registered an inhibitory constant (Ki) in assay [2] of 0.05 to 0.2 µM.

Regarding `COc1cc2sc(CNC(=O)C3(CC(=O)O)Cc4ccccc4C3)nc2cc1C(=O)N1CC(N(C)C)C1` [Example 36, 2-[2-[[5-[3-(dimethylamino)azetidine-1-carbonyl]-6-methoxy-1,3-benzothiazol-2-yl]methylcarbamoyl]indan-2-yl]acetic acid], in assay [1], the inhibition at 25 µM is more than 80%. In assay [2], the Ki was less than 0.05 µM.

Turning to `CC[N+](C)(CC)CCCOc1cc2nc(CNC(=O)C3(CC(=O)[O-])Cc4ccccc4C3)sc2cc1OC` [Example 18, 2-[2-[[5-[3-[diethyl(methyl)ammonio]propoxy]-6-methoxy-1,3-benzothiazol-2-yl]methylcarbamoyl]indan-2-yl]acetate], the inhibition at 25 µM in assay [1] fell in the range of 60 to 80%. The same compound registered a Ki in assay [2] of less than 0.05 µM.

For the compound `N#Cc1ccc2sc(CNC(=O)C3(CC(=O)O)Cc4ccccc4C3)nc2c1` [Example 49, 2-[2-[(5-cyano-1,3-benzothiazol-2-yl)methylcarbamoyl]indan-2-yl]acetic acid], the inhibition at 25 µM in assay [1] was 60 to 80%. The inhibition constant (Ki) in assay [2] lay in the range of 0.05 to 0.2 µM.

In the case of `COc1cc2sc(CNC(=O)C3(CC(=O)[O-])Cc4ccccc4C3)nc2cc1C(=O)N1CCOC(C[N+](C)(C)C)C1` (stereo not shown) [Example 41, 2-[2-[[6-methoxy-5-[2-[(trimethylammonio)methyl]morpholine-4-carbonyl]-1,3-benzothiazol-2-yl]methylcarbamoyl]indan-2-yl]acetate], in assay [1], the inhibition at 25 µM is 60 to 80%. Also, the Ki in assay [2] fell in the range of 0.05 to 0.2 µM.

Turning to `COc1cc2sc(CNC(=O)C3(CC(=O)O)Cc4ccccc4C3)nc2cc1C(=O)N1CCN(C)CC1` [Example 33, 2-[2-[[6-methoxy-5-(4-methylpiperazine-1-carbonyl)-1,3-benzothiazol-2-yl]methylcarbamoyl]indan-2-yl]acetic acid], the inhibition at 25 µM in assay [1] is 60 to 80%. This compound also showed an inhibition constant (Ki) in assay [2] of less than 0.05 µM.
